Here are results for ten compounds from patent publication US20100248390A1, “COMPOSITIONS AND METHODS FOR IDENTIFYING LIGANDS OF ODORANT RECEPTORS” (DUKE UNIVERSITY, priority 2009, published 2010).

pEC50: −log10 of the molar value. Where two headings read alike, the source gives them in different places.

What all share (experiment): CRE-luciferase assay of odorant receptor activation (Dual-Glo, Hana3A cells, RTP1S), dose-response EC50
Format in all cases: cell-based

For assay [1], the target named is T1, human odorant receptors (ORs) (Homo sapiens, UniProt O95371).
T1 construct: OR open reading frames were amplified from genomic DNA; expressed in transfected cells; host or cells: Hana3A cells, co-transfected with RTP1S, CRE-luciferase and pRL-SV40
T1 sequence (O95371 1-312): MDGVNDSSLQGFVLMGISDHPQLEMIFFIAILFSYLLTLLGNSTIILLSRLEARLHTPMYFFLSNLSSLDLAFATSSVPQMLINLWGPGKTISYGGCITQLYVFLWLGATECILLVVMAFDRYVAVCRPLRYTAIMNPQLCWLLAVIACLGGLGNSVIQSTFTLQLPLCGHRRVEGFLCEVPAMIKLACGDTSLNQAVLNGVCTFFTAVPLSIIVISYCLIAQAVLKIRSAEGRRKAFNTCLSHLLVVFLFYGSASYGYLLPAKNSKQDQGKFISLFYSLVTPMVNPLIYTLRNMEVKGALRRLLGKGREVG
Conditions: receptor OR2C1; read-out: log EC50 of odorant at OR2C1 (0 = no response) (converted). The essentials: (§1)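 Hana3A cells were co-transfected with Rho-tagged OR, RTP1S, CRE-luciferase and pRL-SV40, then exposed to odorant in CD293 medium for 4 hrs at 37° C. Firefly luminescence was divided by Renilla and normalized as (LN−Lmin)/(Lmax−Lmin) per plate set. Each dose was tested at least three times, and EC50 came from sigmoidal fits.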

Assay [2] addresses T2, human odorant receptors (ORs) (Homo sapiens, UniProt O76002).
T2 construct: OR open reading frames were amplified from genomic DNA; expressed in transfected cells; host or cells: Hana3A cells, co-transfected with RTP1S, CRE-luciferase and pRL-SV40
T2 sequence (O76002 1-312): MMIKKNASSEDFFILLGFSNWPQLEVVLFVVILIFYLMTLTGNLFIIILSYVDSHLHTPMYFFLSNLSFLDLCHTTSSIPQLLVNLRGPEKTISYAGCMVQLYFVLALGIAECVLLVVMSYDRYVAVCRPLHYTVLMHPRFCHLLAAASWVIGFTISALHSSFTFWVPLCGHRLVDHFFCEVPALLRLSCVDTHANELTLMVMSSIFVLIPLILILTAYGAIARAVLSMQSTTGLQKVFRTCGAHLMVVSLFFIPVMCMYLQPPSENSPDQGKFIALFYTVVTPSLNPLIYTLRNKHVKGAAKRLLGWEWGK
Conditions: for EC50: receptor OR2J2. The method in brief: as §1

Assay [3] has as its target T3, human odorant receptors (ORs) (Homo sapiens, UniProt Q8NG81).
T3 construct: OR open reading frames were amplified from genomic DNA; expressed in transfected cells; host or cells: Hana3A cells, co-transfected with RTP1S, CRE-luciferase and pRL-SV40
T3 sequence (Q8NG81 1-312): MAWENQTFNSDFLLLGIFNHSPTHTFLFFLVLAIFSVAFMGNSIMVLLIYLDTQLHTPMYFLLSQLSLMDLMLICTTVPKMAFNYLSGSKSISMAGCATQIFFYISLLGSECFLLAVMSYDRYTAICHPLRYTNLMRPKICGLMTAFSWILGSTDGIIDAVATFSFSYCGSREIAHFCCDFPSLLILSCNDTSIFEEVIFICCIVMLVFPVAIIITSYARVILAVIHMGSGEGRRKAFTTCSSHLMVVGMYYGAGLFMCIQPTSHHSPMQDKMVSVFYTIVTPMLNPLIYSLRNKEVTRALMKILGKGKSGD
Conditions: receptor OR2M7. The method in brief:
as §1

Assay [4] concerns the target T4, human odorant receptors (ORs) (Homo sapiens, UniProt Q8WZ94).
T4 construct: OR open reading frames were amplified from genomic DNA; expressed in transfected cells; host or cells: Hana3A cells, co-transfected with RTP1S, CRE-luciferase and pRL-SV40
T4 sequence (Q8WZ94 1-311): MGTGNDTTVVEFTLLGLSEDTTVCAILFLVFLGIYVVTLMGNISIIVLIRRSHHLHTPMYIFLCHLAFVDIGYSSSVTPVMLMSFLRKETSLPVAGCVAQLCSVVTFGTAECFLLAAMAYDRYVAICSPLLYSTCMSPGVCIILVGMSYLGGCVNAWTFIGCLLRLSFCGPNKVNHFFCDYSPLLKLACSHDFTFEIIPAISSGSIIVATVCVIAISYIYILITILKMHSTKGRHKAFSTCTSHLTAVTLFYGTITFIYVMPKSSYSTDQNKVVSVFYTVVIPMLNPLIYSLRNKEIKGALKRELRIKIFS
The settings on record: receptor OR5P3. The essentials:
as §1

[5] abbreviates: read-out: log EC50 (Table 4 value), OR5P3 (converted).

What is called EC50 is the concentration that produces a half-maximal response. For orientation: pEC50 means the negative decadic logarithm of the EC50, by convention in mol/L. Higher therefore signals a low EC50.

With `CCCCCCCCCS` [Nonanethiol], the EC50 in assay [1] is 128 µM.
Regarding `CCCCCCCCCCO` [1-Decanol], the pEC50 in assay [2] is 3.42.
With `CC(C)=CCCC(C)CCO` (single isomer, unassigned; (-)) [(−)-b-C ? inedol], the EC50 in assay [3] (0 = no response, read-out: log EC50, OR2M7 (converted)) was 140 µM.
As to `C=C(C)C1CC=C(C)C(=O)C1` (single isomer, unassigned; (-)) [(−)-Carvone], the “log EC50, OR5P3” value in assay [4] (0 = no response) is listed as −4.645.
For `O=c1ccc2ccccc2o1` [Coumarin], the EC50 in assay [2] (read-out: log EC50 (Table 4 value), OR2J2 (converted)) was 274 µM; in assay [4] (setting [5]) it was 5.62 µM.
For `CCCCCCCCS` [Octanethiol], in assay [1], the concentration giving a half-maximal response (EC50) was 88.9 µM.
Turning to `CC(=O)c1ccccc1` [Acetophenone], in assay [4] (setting [5]), the EC50 is 126 µM.
For the compound `CC(C)=CCC/C(C)=C/CO` [Getaniol], the EC50 in assay [3] (read-out: log EC50 (Table 4 value), OR2M7 (converted)) is 627 µM.
As to `CCCCCCCO` [1-Heptanol], the EC50 is 536 µM in assay [2] (0 = no response, read-out: log EC50, OR2J2 (converted)) and 1090 µM in assay [4] (0 = no response, read-out: log EC50, OR5P3 (converted)).
Take `C=C(C)[C@H]1CC=C(C)C(=O)C1` [(+)-Carvone]: the “log EC50, OR5P3” value in assay [4] (0 = no response) is reported as −5.173.
